ChEMBL document CHEMBL4270597, “Donepezil-butylated hydroxytoluene (BHT) hybrids as Anti-Alzheimer's disease agents with cholinergic, antioxidant, and neuroprotective properties” (Eur J Med Chem, 2018)
pIC50: −log10 of the molar value. Activity calls are given as the source filed them. The rule behind the calls is not given here.

Legend:
[1] = target: Acetylcholinesterase (Electrophorus electricus) (UniProt O42275); assay: Inhibition of electric eel AChE at 100 uM using acetylthiocholine chloride as substrate incubated for 5 mins followed by substrate addition measured after 180 secs by Ellman's method relative to control
Acetylcholinesterase (Electrophorus electricus), sequence (O42275 24-633 limits assumed): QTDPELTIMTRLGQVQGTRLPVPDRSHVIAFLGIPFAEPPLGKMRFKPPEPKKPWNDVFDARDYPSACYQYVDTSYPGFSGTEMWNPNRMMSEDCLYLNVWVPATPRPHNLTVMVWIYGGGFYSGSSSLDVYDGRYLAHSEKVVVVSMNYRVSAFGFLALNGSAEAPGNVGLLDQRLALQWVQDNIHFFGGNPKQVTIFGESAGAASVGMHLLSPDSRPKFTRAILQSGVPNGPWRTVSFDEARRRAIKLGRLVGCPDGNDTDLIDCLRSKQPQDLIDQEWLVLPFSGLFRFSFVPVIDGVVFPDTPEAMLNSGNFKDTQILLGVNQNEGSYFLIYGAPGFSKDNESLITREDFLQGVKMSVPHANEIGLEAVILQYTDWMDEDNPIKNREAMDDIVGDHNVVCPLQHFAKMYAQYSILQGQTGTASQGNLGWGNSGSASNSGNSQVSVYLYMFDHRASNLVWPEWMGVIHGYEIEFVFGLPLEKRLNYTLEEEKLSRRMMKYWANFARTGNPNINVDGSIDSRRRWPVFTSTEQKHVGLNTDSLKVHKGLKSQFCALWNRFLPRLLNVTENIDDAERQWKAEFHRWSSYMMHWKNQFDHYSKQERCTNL

[2] = target: Cholinesterase (Equus caballus) (UniProt P81908); assay: Inhibition of equine serum BuChE at 100 uM using butyrylthiocholine iodide as substrate incubated for 5 mins followed by substrate addition measured after 180 secs by Ellman's method relative to control
Cholinesterase (Equus caballus), sequence (P81908 whole entry): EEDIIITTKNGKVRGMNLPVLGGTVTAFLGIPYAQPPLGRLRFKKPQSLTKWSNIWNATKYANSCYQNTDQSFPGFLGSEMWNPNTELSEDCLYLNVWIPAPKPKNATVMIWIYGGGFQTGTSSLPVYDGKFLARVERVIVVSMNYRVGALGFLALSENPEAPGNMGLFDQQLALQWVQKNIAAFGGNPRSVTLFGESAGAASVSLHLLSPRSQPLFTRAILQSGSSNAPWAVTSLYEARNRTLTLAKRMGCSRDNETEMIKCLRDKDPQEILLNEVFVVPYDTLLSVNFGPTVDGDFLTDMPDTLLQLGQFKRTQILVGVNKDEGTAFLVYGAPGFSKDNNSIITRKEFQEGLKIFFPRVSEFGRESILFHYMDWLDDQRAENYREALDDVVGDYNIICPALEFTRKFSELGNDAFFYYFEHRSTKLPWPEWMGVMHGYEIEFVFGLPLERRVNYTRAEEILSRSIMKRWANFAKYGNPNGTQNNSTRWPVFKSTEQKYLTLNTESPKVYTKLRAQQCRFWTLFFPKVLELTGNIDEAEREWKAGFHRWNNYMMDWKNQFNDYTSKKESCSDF

Acetylcholinesterase [3] = target: T1, Acetylcholinesterase (Homo sapiens, UniProt P22303); assay: Inhibition of human erythrocyte AChE at 100 uM using acetylthiocholine chloride as substrate incubated for 5 mins followed by substrate addition measured after 180 secs by Ellman's method relative to control
T1 sequence (P22303 whole entry): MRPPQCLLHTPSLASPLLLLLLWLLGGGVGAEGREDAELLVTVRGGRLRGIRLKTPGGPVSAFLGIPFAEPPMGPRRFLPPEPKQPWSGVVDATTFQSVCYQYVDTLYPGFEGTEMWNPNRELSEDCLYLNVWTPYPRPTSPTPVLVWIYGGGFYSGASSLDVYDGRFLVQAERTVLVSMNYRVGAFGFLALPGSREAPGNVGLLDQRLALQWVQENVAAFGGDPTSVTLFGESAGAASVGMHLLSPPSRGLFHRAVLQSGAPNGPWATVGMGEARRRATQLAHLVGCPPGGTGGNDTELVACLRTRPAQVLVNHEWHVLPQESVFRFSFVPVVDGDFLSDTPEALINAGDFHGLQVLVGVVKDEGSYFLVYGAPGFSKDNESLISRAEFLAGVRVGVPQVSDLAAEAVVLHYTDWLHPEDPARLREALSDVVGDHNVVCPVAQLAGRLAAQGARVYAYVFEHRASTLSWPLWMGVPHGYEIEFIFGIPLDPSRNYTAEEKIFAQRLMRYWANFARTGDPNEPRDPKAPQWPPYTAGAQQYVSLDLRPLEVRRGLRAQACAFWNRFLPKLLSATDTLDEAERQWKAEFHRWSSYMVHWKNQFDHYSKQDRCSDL

Cholinesterase [4] = target: T2, Cholinesterase (Homo sapiens, UniProt P06276); assay: Inhibition of human serum BuChE at 100 uM using butyrylthiocholine iodide as substrate incubated for 5 mins followed by substrate addition measured after 180 secs by Ellman's method relative to control
T2 sequence (P06276 whole entry): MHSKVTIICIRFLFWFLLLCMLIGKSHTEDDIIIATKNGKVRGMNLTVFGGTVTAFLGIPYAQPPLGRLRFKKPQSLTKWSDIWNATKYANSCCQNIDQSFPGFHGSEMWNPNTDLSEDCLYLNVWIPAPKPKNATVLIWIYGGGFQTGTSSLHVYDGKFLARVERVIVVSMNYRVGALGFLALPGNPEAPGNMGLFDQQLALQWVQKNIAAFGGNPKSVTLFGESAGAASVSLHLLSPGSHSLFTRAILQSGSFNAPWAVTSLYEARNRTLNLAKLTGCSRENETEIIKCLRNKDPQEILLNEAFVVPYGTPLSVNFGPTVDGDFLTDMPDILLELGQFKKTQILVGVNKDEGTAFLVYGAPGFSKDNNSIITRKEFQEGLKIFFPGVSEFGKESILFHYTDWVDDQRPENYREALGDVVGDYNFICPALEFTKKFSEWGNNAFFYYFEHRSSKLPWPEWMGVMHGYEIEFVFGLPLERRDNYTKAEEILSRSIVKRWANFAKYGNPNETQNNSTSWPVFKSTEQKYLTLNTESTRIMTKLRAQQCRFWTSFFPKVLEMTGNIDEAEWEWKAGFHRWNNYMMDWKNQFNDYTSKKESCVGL

[5] = target: T3, Amine oxidase [flavin-containing] A (Homo sapiens, UniProt P21397); assay: Inhibition of human MAO-A using p-tyramine as substrate incubated for 15 mins followed by substrate addition measured for 20 mins by fluorescence assay
T3 sequence (P21397 whole entry): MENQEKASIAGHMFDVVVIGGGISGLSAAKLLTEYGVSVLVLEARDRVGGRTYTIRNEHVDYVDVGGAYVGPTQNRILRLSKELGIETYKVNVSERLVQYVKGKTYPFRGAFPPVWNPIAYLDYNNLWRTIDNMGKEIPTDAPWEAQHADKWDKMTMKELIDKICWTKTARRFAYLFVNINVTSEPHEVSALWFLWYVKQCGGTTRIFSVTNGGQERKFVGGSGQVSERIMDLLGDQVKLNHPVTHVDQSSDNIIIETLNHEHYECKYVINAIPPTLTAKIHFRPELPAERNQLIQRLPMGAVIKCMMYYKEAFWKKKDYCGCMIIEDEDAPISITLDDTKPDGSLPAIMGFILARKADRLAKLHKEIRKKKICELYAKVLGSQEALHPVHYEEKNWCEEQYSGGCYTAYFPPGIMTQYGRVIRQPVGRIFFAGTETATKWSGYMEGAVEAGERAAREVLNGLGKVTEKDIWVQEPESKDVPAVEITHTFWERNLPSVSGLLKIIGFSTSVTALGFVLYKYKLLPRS

[6] = target: T4, Amine oxidase [flavin-containing] B (Homo sapiens, UniProt P27338); assay: Inhibition of human MAO-B using p-tyramine as substrate incubated for 15 mins followed by substrate addition measured for 20 mins by fluorescence assay
T4 sequence (P27338 whole entry): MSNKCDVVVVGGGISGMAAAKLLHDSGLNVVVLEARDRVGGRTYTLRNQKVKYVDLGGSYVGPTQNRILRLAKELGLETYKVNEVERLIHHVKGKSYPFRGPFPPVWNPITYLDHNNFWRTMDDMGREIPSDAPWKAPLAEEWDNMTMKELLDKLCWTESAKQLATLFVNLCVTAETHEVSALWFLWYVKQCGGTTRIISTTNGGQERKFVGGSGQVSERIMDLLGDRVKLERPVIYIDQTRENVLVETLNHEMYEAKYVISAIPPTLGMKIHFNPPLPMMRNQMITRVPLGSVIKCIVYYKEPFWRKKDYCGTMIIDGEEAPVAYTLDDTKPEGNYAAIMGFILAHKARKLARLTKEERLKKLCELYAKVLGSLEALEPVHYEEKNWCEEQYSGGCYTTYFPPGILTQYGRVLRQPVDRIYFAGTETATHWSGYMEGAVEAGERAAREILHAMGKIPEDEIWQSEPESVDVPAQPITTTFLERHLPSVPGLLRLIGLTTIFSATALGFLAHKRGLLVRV

[7] = Antioxidant activity assessed as DPPH radical scavenging activity at 100 uM measured after 30 mins incubation in dark by UV-Visible spectrophotometric analysis relative to control; assay type: functional
[8] = Antioxidant activity assessed as ABTS radical cation scavenging activity by measuring trolox equivalent antioxidant capacity measured at 6 mins; assay type: functional
[9] = Antioxidant activity assessed as trolox equivalent of AAPH-induced radical scavenging activity preincubated for 15 mins followed by AAPH addition measured every minute for 120 mins by ORAC-FL based fluorescein assay; assay type: functional
[10] = Antioxidant activity assessed as DPPH radical scavenging activity measured after 30 mins incubation in dark by UV-Visible spectrophotometric analysis; assay type: functional
BV-2 = assay: Antineuroinflammatory activity in mouse BV2 cells assessed as inhibition of LPS-induced NO production at 10 to 30 uM after 24 hrs by Griess assay; assay type: functional, cell-based
Acetylcholinesterase [11] = target: Acetylcholinesterase (Electrophorus electricus, UniProt O42275); assay: Inhibition of electric eel AChE using acetylthiocholine chloride as substrate incubated for 5 mins followed by substrate addition measured after 180 secs by Ellman's method
Acetylcholinesterase (Electrophorus electricus, UniProt O42275), sequence (O42275 whole entry): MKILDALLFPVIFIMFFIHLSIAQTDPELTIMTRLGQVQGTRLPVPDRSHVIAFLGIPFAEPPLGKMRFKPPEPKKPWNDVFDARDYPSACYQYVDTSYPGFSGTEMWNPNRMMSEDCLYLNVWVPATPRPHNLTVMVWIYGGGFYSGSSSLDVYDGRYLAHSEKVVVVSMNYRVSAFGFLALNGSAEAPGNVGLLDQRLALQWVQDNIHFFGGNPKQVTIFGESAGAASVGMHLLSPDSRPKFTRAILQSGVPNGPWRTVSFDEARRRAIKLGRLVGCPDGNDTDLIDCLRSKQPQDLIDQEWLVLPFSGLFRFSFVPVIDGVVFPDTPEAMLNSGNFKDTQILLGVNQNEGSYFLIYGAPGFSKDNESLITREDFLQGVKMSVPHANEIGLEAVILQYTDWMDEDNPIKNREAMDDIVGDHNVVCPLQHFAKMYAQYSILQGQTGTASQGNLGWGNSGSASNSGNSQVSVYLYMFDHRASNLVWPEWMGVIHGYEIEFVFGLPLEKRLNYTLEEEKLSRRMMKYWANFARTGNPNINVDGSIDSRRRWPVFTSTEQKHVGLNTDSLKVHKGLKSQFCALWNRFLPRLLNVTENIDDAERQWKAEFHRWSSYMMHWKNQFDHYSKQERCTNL

Acetylcholinesterase [12] = target: T1, Acetylcholinesterase; assay: Inhibition of human erythrocyte AChE using acetylthiocholine chloride as substrate incubated for 5 mins followed by substrate addition measured after 180 secs by Ellman's method
Homo sapiens = species on record: Homo sapiens; assay: Selectivity index, ratio of IC50 for human serum BuChE to IC50 for human erythrocyte AChE
Cholinesterase [13] = target: T2, Cholinesterase; assay: Inhibition of human serum BuChE using butyrylthiocholine iodide as substrate incubated for 5 mins followed by substrate addition measured after 180 secs by Ellman's method; conditions: for pIC50: read-out: IC50
PC-12 [14] = assay: Cytotoxicity against rat PC12 cells assessed as decrease in cell viability at 20 uM after 24 hrs by MTT assay; assay type: cell-based; conditions: pc-12, 24 h
PC-12 [15] = assay: Cytotoxicity against rat PC12 cells assessed as decrease in cell viability at 30 uM after 24 hrs by MTT assay; assay type: cell-based; conditions: pc-12, 24 h
Cholinesterase [16] = target: Cholinesterase (Equus caballus, UniProt P81908); assay: Inhibition of equine serum BuChE using butyrylthiocholine iodide as substrate incubated for 5 mins followed by substrate addition measured after 180 secs by Ellman's method
Cholinesterase (Equus caballus, UniProt P81908), sequence (P81908 whole entry): as the sequence (P81908 whole entry) above

Structure (SMILES) | inhibition [1] [%] | inhibition [2] [%] | inhibition (Acetylcholinesterase [3]) [%] | inhibition (Cholinesterase [4]) [%] | pIC50 [5] | pIC50 [6] | Activity [7] [%] | Activity (mmolequiv/mmol) [8] | Activity (mmolequiv/mmol) [9] | pIC50 [10] | inhibition (BV-2) | pIC50 (Acetylcholinesterase [11]) | pIC50 (Acetylcholinesterase [12]) | Ratio IC50 (Homo sapiens) | pIC50 (Cholinesterase [13]) | Activity (PC-12 [14]) | Activity (PC-12 [15]) | pIC50 (Cholinesterase [16]) | IC50 (Cholinesterase [13])
CC(C)(C)c1cc(C(=O)CNC2CCN(Cc3ccccc3)CC2)cc(C(C)(C)C)c1O | 45 | 27.2 | 43.4 | 26.1 | 3.98 | 4.08 | 16.3 | 0.36 | 0.35 | – | – | – | – | – | – | – | – | – | –
CC(C)(C)c1cc(C(=O)NCCC2CCN(Cc3ccccc3)CC2)cc(C(C)(C)C)c1O | 41.8 | 49.7 | 34.1 | 15.8 | 3.96 | 4.05 | 49.1 | 0.84 | 1.6 | – | – | – | – | – | – | – | – | – | –
Cc1cc(C(C)(C)C)c(O)c(C(C)(C)C)c1 [BUTYLATED HYDROXYTOLUENE] | – | – | – | – | – | – | – | 0.59 | 1.57 | 4.05 | Active | – | – | – | – | – | – | – | –
Cc1ccccc1CN1CCC(CCNC(=O)/C=C/c2cc(C(C)(C)C)c(O)c(C(C)(C)C)c2)CC1 | – | 55.9 | – | 30.2 | 4.16 | 5.14 | – | 0.75 | 1.61 | 4.19 | – | 6.06 | 5.60 | > 40 | – | – | – | – | –
O=C(/C=C/c1ccccc1)NCCC1CCN(Cc2ccccc2)CC1 | – | – | – | – | – | – | – | 0.31 | 0.72 | < 3.70 | – | 6.26 | 6.35 | 3.7 | 5.78 | Non-Toxic | Toxic | – | –
CC(C)(C)c1cc(/C=C/C(=O)NCC2CCN(Cc3ccccc3)CC2)cc(C(C)(C)C)c1O | 29.1 | 16.6 | 28.1 | 21.7 | 4.32 | 4.93 | – | 0.86 | 1.31 | 4.12 | – | – | – | – | – | – | – | – | –
CC(C)(C)c1cc(CCC(=O)NCCC2CCN(Cc3ccccc3)CC2)cc(C(C)(C)C)c1O | – | 42.4 | – | 36.5 | 4.03 | 4.33 | – | 0.69 | 1.33 | 4.26 | – | 5.64 | 5.47 | > 33 | – | – | – | – | –
CC(C)(C)c1cc(/C=C/C(=O)NC2CCN(Cc3ccccc3)CC2)cc(C(C)(C)C)c1O | 34.3 | 31.5 | 27.7 | 9.41 | 4.37 | 4.47 | – | 0.94 | 1.42 | 4.14 | – | – | – | – | – | – | – | – | –
Oc1ccc(/C=C/c2cc(O)cc(O)c2)cc1 [RESVERATROL] | – | – | – | – | – | – | – | 0.68 | 1.84 | 4.12 | Active | – | – | – | – | – | – | – | –
CC(C)(C)c1cc(CCC(=O)NC2CCN(Cc3ccccc3)CC2)cc(C(C)(C)C)c1O | 34.4 | 28.7 | 30.2 | 12.3 | 4.04 | 4.15 | – | 0.68 | 1.62 | 4.10 | – | – | – | – | – | – | – | – | –
CC(C)(C)c1cc(C(=O)CNCCC2CCN(Cc3ccccc3)CC2)cc(C(C)(C)C)c1O | – | – | – | – | 4.02 | 4.04 | 26.7 | 0.27 | 0.31 | – | – | 5.61 | 5.86 | 14 | 4.71 | – | – | 4.31 | –
CC(C)(C)c1cc(/C=C/C(=O)NCCC2CCN(Cc3ccc(C#N)cc3)CC2)cc(C(C)(C)C)c1O | – | 48.1 | – | 41.2 | 4.11 | 4.86 | – | 0.84 | 1.62 | 4.10 | – | 6.11 | 5.56 | > 36 | – | – | – | – | –
CC(C)(C)c1cc(/C=C/C(=O)NCCC2CCN(Cc3cccc([N+](=O)[O-])c3)CC2)cc(C(C)(C)C)c1O | – | 42.6 | – | – | 4.15 | 4.90 | – | 0.85 | 1.6 | 4.11 | – | 5.92 | 5.46 | – | – | – | – | – | Not Active
O=C(/C=C/c1ccc(O)cc1)NCCC1CCN(Cc2ccccc2)CC1 | – | – | – | – | – | – | – | 0.55 | 1.81 | 4.14 | – | 6.09 | 5.60 | 0.49 | 5.91 | Non-Toxic | Toxic | 5.90 | –
CC(C)(C)c1cc(/C=C/C(=O)NCCC2CCN(Cc3ccc(F)cc3F)CC2)cc(C(C)(C)C)c1O | – | 31.2 | – | – | 4.15 | 4.90 | – | 0.91 | 1.54 | 4.20 | – | 6.25 | 5.75 | – | – | – | – | – | Not Active
